Reference: patent US9428499B2, “Heterocyclyl compounds as MEK inhibitors” (LUPIN LIMITED, priority 2012, dated 2016)

System: ERK phosphorylation
Assay: Analysis of ERK phosphorylation (Alphascreen SureFire Phospho-ERK 1/2)
Type: cell-based, human and mouse
Conditions: cells treated for 1 h; human melanoma cells, human and mouse colon cancer cells; read-out: Minimum concentration (nM) required for ≧80% inhibition of pERK
Method: This assay was carried out with human melanoma cells, human and mouse colon cancer cells. Cells were treated for 1 h with various concentrations of test compounds. ERK phosphorylation analysis was performed using the Alphascreen SureFire Phospho-ERK 1/2 Kit (Perkin Elmer), by following the manufacturer's instructions. % inhibition of ERK phosphorylation was determined as: 100−{(RFU test−RFU lysis buffer control)/(RFU vehicle treated control−RFU lysis buffer control)}×100. Percentage inhibition at concentrations of 0.01 nM, 0.03 nM, 0.1-0.9 nM, 1 nM to 3 nM, 4-100 nM, and >100 nM, for the stated examples is setworth here. The percentage inhibition at the above depicted concentrations for the compounds stated are given in the following groups.

SMILES	IC80 [nM]
Cc1c(=O)n(C)c(Nc2ccc(I)cc2F)c2c(=O)[nH]c(=O)n(-c3cccc(CCC(N)=O)c3)c12 [Compound 1, 3-(3-(5-((2-fluoro-4-iodophenyl)amino)-6,8-dimethyl-2,4,7-trioxo-3,4,6,7-tetrahydropyrido[4,3-d]pyrimidin-1(2H)-yl)phenyl)propanamide]	1 to 3
Cc1c(=O)n(C)c(Nc2ccc(I)cc2F)c2c(=O)[nH]c(=O)n(-c3cccc(C(=O)N4CCC4)c3)c12 [Compound 3, 1-(3-(azetidine-1-carbonyl)phenyl)-5-((2-fluoro-4-iodophenyl)amino)-6,8-dimethylpyrido[4,3-d]pyrimidine-2,4,7(1H,3H,6H)-trione]	1 to 3
Cc1c(=O)n(C)c(Nc2ccc(I)cc2F)c2c(=O)[nH]c(=O)n(-c3cccc(CC(=O)NC4CC4)c3)c12 [Compound 4, N-cyclopropyl-2-(3-(5-((2-fluoro-4-iodophenyl)amino)-6,8-dimethyl-2,4,7-trioxo-3,4,6,7-tetrahydropyrido[4,3-d]pyrimidin-1(2H)-yl)phenyl)acetamide]	1 to 3
Cc1c(=O)n(C)c(Nc2ccc(I)cc2F)c2c(=O)[nH]c(=O)n(-c3cccc(OCC(=O)NC4CC4)c3)c12 [Compound 6, N-cyclopropyl-2-(3-(5-((2-fluoro-4-iodophenyl)amino)-6,8-dimethyl-2,4,7-trioxo-3,4,6,7-tetrahydropyrido[4,3-d]pyrimidin-1(2H)-yl)phenoxy)acetamide]	0.01
Cc1c(=O)n(C)c(Nc2ccc(I)cc2F)c2c(=O)[nH]c(=O)n(-c3cccc(C(=O)N4CCOCC4)c3)c12 [Compound 7, 5-((2-fluoro-4-iodophenyl)amino)-6,8-dimethyl-1-(3-(morpholine-4-carbonyl)phenyl)pyrido[4,3-d]pyrimidine-2,4,7(1H,3H,6H)-trione]	4 to 100
Cc1c(=O)n(C)c(Nc2ccc(I)cc2F)c2c(=O)[nH]c(=O)n(-c3cccc(C(=O)N4CCS(=O)(=O)CC4)c3)c12 [Compound 8, 1-(3-(1,1-dioxidothiomorpholine-4-carbonyl)phenyl)-5-((2-fluoro-4-iodophenyl)amino)-6,8-dimethylpyrido[4,3-d]pyrimidine-2,4,7(1H,3H,6H)-trione]	1 to 3
Cc1c(=O)n(C)c(Nc2ccc(I)cc2F)c2c(=O)[nH]c(=O)n(-c3cccc(C(C)(C)C(N)=O)c3)c12 [Compound 9, 2-(3-(5-((2-fluoro-4-iodophenyl)amino)-6,8-dimethyl-2,4,7-trioxo-3,4,6,7-tetrahydropyrido[4,3-d]pyrimidin-1(2H)-yl)phenyl)-2-methylpropanamide]	0.1 to 0.9
Cc1c(=O)n(C)c(Nc2ccc(I)cc2F)c2c(=O)[nH]c(=O)n(-c3cccc(CC(=O)N(C)C)c3)c12 [Compound 10, 2-(3-(5-((2-fluoro-4-iodophenyl)amino)-6,8-dimethyl-2,4,7-trioxo-3,4,6,7-tetrahydropyrido[4,3-d]pyrimidin-1(2H)-yl)phenyl)-N,N-dimethylacetamide]	0.1 to 0.9
Cc1c(Nc2ccc(I)cc2F)c2c(=O)[nH]c(=O)n(-c3cccc(C(F)(F)C(N)=O)c3)c2n(C)c1=O [Compound 11, 2,2-difluoro-2-(3-(5-((2-fluoro-4-iodophenyl)amino)-6,8-dimethyl-2,4,7-trioxo-3,4,7,8-tetrahydropyrido[2,3-d]pyrimidin-1(2H)-yl)phenyl)acetamide]	0.1 to 0.9
Cc1c(=O)n(C)c(Nc2ccc(I)cc2F)c2c(=O)[nH]c(=O)n(-c3cccc(C(=O)NC4(C(N)=O)CC4)c3)c12 [Compound 12, N-(1-carbamoylcyclopropyl)-3-(5-((2-fluoro-4-iodophenyl)amino)-6,8-dimethyl-2,4,7-trioxo-3,4,6,7-tetrahydropyrido[4,3-d]pyrimidin-1(2H)-yl)benzamide]	4 to 100
Cc1c(=O)n(C)c(Nc2ccc(I)cc2F)c2c(=O)[nH]c(=O)n(-c3cccc(C(=O)NC4CCOCC4)c3)c12 [Compound 13, 3-(5-((2-fluoro-4-iodophenyl)amino)-6,8-dimethyl-2,4,7-trioxo-3,4,6,7-tetrahydropyrido[4,3-d]pyrimidin-1(2H)-yl)-N-(tetrahydro-2H-pyran-4-yl)benzamide]	0.01
Cc1c(=O)n(C)c(Nc2ccc(I)cc2F)c2c(=O)[nH]c(=O)n(-c3cccc(C(O)C(N)=O)c3)c12 (centres unmarked) [Compound 14, 2-(3-(5-((2-fluoro-4-iodophenyl)amino)-6,8-dimethyl-2,4,7-trioxo-3,4,6,7-tetrahydropyrido[4,3-d]pyrimidin-1(2H)-yl)phenyl)-2-hydroxyacetamide]	4 to 100
CNC(=O)CCc1cccc(-n2c(=O)[nH]c(=O)c3c(Nc4ccc(I)cc4F)n(C)c(=O)c(C)c32)c1 [Compound 15, 3-(3-(5-((2-fluoro-4-iodophenyl)amino)-6,8-dimethyl-2,4,7-trioxo-3,4,6,7-tetrahydropyrido[4,3-d]pyrimidin-1(2H)-yl)phenyl)-N-methylpropanamide]	1 to 3
Cc1c(=O)n(C)c(Nc2ccc(I)cc2F)c2c(=O)[nH]c(=O)n(-c3cccc(C(=O)N4CCS(=O)(=O)C4)c3)c12 [Compound 17, 1-(3-(1,1-dioxidothiazolidine-3-carbonyl)phenyl)-5-((2-fluoro-4-iodophenyl)amino)-6,8-dimethylpyrido[4,3-d]pyrimidine-2,4,7(1H,3H,6H)-trione]	0.1 to 0.9
Cc1c(=O)n(C)c(Nc2ccc(I)cc2F)c2c(=O)[nH]c(=O)n(-c3cccc(C(=O)N4CCC(O)CC4)c3)c12 [Compound 18, 5((2-fluoro-4-iodophenyl)amino)-1-(3-(4-hydroxypiperidine-1-carbonyl)phenyl)-6,8-dimethylpyrido[4,3-d]pyrimidine-2,4,7(1H,3H,6H)-trione]	4 to 100
Cc1c(=O)n(C)c(Nc2ccc(I)cc2F)c2c(=O)[nH]c(=O)n(-c3cccc(CCC(=O)NC4CC4)c3)c12 [Compound 19, N-cyclopropyl-3-(3-(5-((2-fluoro-4-iodophenyl)amino)-6,8-dimethyl-2,4,7-trioxo-3,4,6,7-tetrahydropyrido[4,3-d]pyrimidin-1(2H)-yl)phenyl)propanamide]	4 to 100
Cc1c(=O)n(C)c(Nc2ccc(I)cc2F)c2c(=O)[nH]c(=O)n(-c3cccc(OC(C)(C)C(N)=O)c3)c12 [Compound 20, 2-(3-(5-((2-fluoro-4-iodophenyl)amino)-6,8-dimethyl-2,4,7-trioxo-3,4,6,7-tetrahydropyrido[4,3-d]pyrimidin-1(2H)-yl)phenoxy)-2-methylpropanamide]	1 to 3
Cc1c(=O)n(C)c(Nc2ccc(I)cc2F)c2c(=O)[nH]c(=O)n(-c3cccc(C(=O)N4CCN(C)CC4)c3)c12 [Compound 21, 5-((2-fluoro-4-iodophenyl)amino)-6,8-dimethyl-1-(3-(4-methylpiperazine-1-carbonyl)phenyl)pyrido[4,3-d]pyrimidine-2,4,7(1H,3H,6H)-trione]	0.1 to 0.9
Cc1c(=O)n(C)c(Nc2ccc(I)cc2F)c2c(=O)[nH]c(=O)n(-c3cccc(C(=O)N4CCC(O)C4)c3)c12 (centres unmarked) [Compound 22, 5-((2-fluoro-4-iodophenyl)amino)-1-(3-(3-hydroxypyrrolidine-1-carbonyl)phenyl)-6,8-dimethylpyrido[4,3-d]pyrimidine-2,4,7(1H,3H,6H)-trione]	4 to 100
Cc1c(=O)n(C)c(Nc2ccc(I)cc2F)c2c(=O)[nH]c(=O)n(-c3cccc(C(=O)N4CCNCC4)c3)c12 [Compound 23, 5-((2-fluoro-4-iodophenyl)amino)-6,8-dimethyl-1-(3-(piperazine-1-carbonyl)phenyl)pyrido[4,3-d]pyrimidine-2,4,7(1H,3H,6H)-trione]	4 to 100
Cc1c(=O)n(C)c(Nc2ccc(I)cc2F)c2c(=O)n(C3CC3)c(=O)n(-c3cccc(C(=O)N4CCC4)c3)c12 [Compound 24, 1-(3-(azetidine-1-carbonyl)phenyl)-3-cyclopropyl-5-((2-fluoro-4-iodophenyl)amino)-6,8-dimethylpyrido[4,3-d]pyrimidine-2,4,7(1H,3H,6H)-trione]	0.1 to 0.9
Cc1c(=O)n(C)c(Nc2ccc(I)cc2F)c2c(=O)n(C3CC3)c(=O)n(-c3cccc(OCC(=O)NC4CC4)c3)c12 [Compound 25, N-cyclopropyl-2-(3-(3-cyclopropyl-5-((2-fluoro-4-iodophenyl)amino)-6,8-dimethyl-2,4,7-trioxo-3,4,6,7-tetrahydropyrido[4,3-d]pyrimidin-1(2H)-yl)phenoxy)acetamide]	0.1 to 0.9
Cc1c(=O)n(C)c(Nc2ccc(I)cc2F)c2c(=O)n(C3CC3)c(=O)n(-c3cccc(CC(N)=O)c3)c12 [Compound 26, 2-(3-(3-cyclopropyl-5-((2-fluoro-4-iodophenyl)amino)-6,8-dimethyl-2,4,7-trioxo-3,4,6,7-tetrahydropyrido[4,3-d]pyrimidin-1(2H)-yl)phenyl)acetamide]	4 to 100
Cc1c(=O)n(C)c(Nc2ccc(I)cc2F)c2c(=O)n(C3CC3)c(=O)n(-c3cccc(C(=O)N4CCCC4)c3)c12 [Compound 27, 3-cyclopropyl-5-((2-fluoro-4-iodophenyl)amino)-6,8-dimethyl-1-(3-(pyrrolidine-1-carbonyl)phenyl)pyrido[4,3-d]pyrimidine-2,4,7(1H,3H,6H)-trione]	1 to 3
Cc1c(=O)n(C)c(Nc2ccc(I)cc2F)c2c(=O)n(C3CC3)c(=O)n(-c3cccc(C(C)(C)C(N)=O)c3)c12 [Compound 28, 2-(3-(3-cyclopropyl-5-((2-fluoro-4-iodophenyl)amino)-6,8-dimethyl-2,4,7-trioxo-3,4,6,7-tetrahydropyrido[4,3-d]pyrimidin-1(2H)-yl)phenyl)-2-methylpropanamide]	0.1 to 0.9
Cc1c(Nc2ccc(I)cc2F)c2c(=O)n(C3CC3)c(=O)n(-c3cccc(C(F)(F)C(N)=O)c3)c2n(C)c1=O [Compound 30, 2-(3-(3-cyclopropyl-5-((2-fluoro-4-iodophenyl)amino)-6,8-dimethyl-2,4,7-trioxo-3,4,7,8-tetrahydropyrido[2,3-d]pyrimidin-1(2H)-yl)phenyl)-2,2-difluoroacetamide]	1 to 3
